The target in data set [1] is T1, Gamma-secretase (Homo sapiens) (UniProt Q96BI3+Q9NZ42+Q8WW43+P49768+Q92542+P49810). The data set is described as follows: Inhibition of gamma-secretase in human SHSY5Y cells expressing Swedish variant of APP K595N/M596L assessed as reduction of amyloid beta 42 level after 24 hrs by DELFIA. The data set is classed as cell-based. To be noted: SH-SY5Y.
In data set [2] the target is T1, Gamma-secretase (Homo sapiens). Briefly: Inhibition of gamma-secretase in human SHSY5Y cells expressing Swedish variant of APP K595N/M596L assessed as reduction of amyloid beta 40 level after 24 hrs by DELFIA. As to conditions: SH-SY5Y. The data set is classed as cell-based.
The target is the same in data set [3]. The data set is described as follows: Inhibition of gamma-secretase in human SHSY5Y cells expressing Swedish variant of APP K595N/M596L assessed as reduction of total amyloid beta level after 24 hrs by DELFIA. To be noted: SH-SY5Y. It is filed as cell-based.
For data set [4], the target named is Gamma-secretase. Briefly: Inhibition of gamma-secretase in human SHSY5Y cells expressing Swedish variant of APP K595N/M596L assessed as reduction of amyloid beta 42 formation after 16 hrs by ELISA. The data set is classed as cell-based. As to conditions: sh-sy5y. In general terms: In an ELISA, binding on a coated surface is turned into a signal by an enzyme label.

In data set [5] the target is Gamma-secretase. The data set is described as follows: Inhibition of gamma-secretase in human SHSY5Y cells expressing Swedish variant of APP K595N/M596L assessed as reduction of amyloid beta 40 formation after 16 hrs by ELISA. To be noted: sh-sy5y. The data set is classed as cell-based.
The nature of data set [6]: Inhibition of gamma-secretase expressed in african green monkey CV1 cells coexpressing Gal4 DNA-binding/transactivation domain assessed as inhibition of notch processing after 22 hrs by luciferase reporter assay. To be noted: CV-1, 22 h. The data set is classed as cell-based. In general terms: In a reporter assay the amount or activity of a reporter protein is the signal.

For the next data set, the system named is CV-1. Briefly: Agonist activity at gamma-secretase expressed in african green monkey CV1 cells coexpressing Gal4 DNA-binding/transactivation domain assessed as increase of notch processing at 10 uM after 22 hrs by luciferase reporter assay. It is filed as cell-based.
A further data set concerns SH-SY5Y. The data set is described as follows: Cytotoxicity against human SH-SY5Y cells assessed as effect of cell viability at 100 uM after 24 hrs by WST1 assay. It is filed as cell-based. For orientation: Tetrazolium dyes change colour on reduction, which living cells bring about.
Data set [7] in a line: Drug level in rat blood at 30 mg/kg, po after 6 hrs. To be noted: read-out: Drug uptake. Set-up: dose 30 mg/kg, route oral. It is filed as ADME, organism-based.
A short description of data set [8]: Drug level in rat brain at 30 mg/kg, po after 6 hrs. Also noted: dose 30 mg/kg, route oral. As to conditions: read-out: Drug uptake. The data set is classed as ADME, organism-based.
A further data set relates to Rattus norvegicus. The data set is described as follows: Antialzheimer activity in rat assessed as reduction of amyloid beta 42 level in brain at 30 mg/kg, po after 6 hrs. It is filed as functional. Set-up: scale not given: the % may be the effect or the level left.
The nature of data set [9]: Ratio of drug level in brain to blood in rat at 30 mg/kg, po after 6 hrs. The data set is classed as ADME, organism-based. Set-up: dose 30 mg/kg, route oral. To be noted: read-out: BBR.
Data set [10] is described as follows: Clearance in Sprague-Dawley rat blood at 1 mg/kg, iv and 2 mg/kg, po. The data set is classed as ADME, organism-based.
Data set [11] is described as follows: Volume of distribution at steady state in Sprague-Dawley rat at 1 mg/kg, iv and 2 mg/kg, po. It is filed as ADME, organism-based. To be noted: in vivo, read-out: Vdss.
A short description of data set [12]: Half life in Sprague-Dawley rat at 1 mg/kg, iv and 2 mg/kg, po. The data set is classed as ADME, organism-based. As to conditions: in vivo.
The nature of data set [13]: Oral bioavailability in Sprague-Dawley rat at 2 mg/kg. The data set is classed as ADME, organism-based. To be noted: in vivo.

Active and inactive are the calls of the source. The rule behind the calls is not given here. Where only a bound is given, the exact number is not on record here.

With `COc1cc(-c2cc(C)c(N[C@@H](C)c3ccc(F)cc3)nn2)ccc1-n1cnc(C)c1` [listing 1 of 2 here], the inhibition result in [1] and in [2] was “Dose-dependent effect” in each case. The inhibition result in data set [3] is “Active”.
The term pIC50 denotes −log10 of the IC50, conventionally taken in molar units. The term IC50 denotes the concentration that inhibits the measured activity by half. For the molecule `COc1cc(-c2ccc(N[C@@H](C)c3ccc(C(F)(F)F)cc3)nn2)ccc1-n1cnc(C)c1`, the figures for the pIC50 at Gamma-secretase [4] and at Gamma-secretase [5] were 7.3 and 6.9, respectively. For the same molecule, the 50% inhibitory concentration (IC50) in data set [6] was over 20 µM.
The corresponding values for `COc1cc(-c2ccc(NCc3ccc(F)cc3)nn2)ccc1-n1cnc(C)c1` are 6.5, 6.2 and over 20 µM.
As to `CCc1cc(-c2ccc(-n3cnc(C)c3)c(OC)c2)nnc1N[C@@H](C)c1ccc(F)cc1`, the pIC50 was 7.2 at Gamma-secretase [4] and 6.8 at Gamma-secretase [5]. In addition, the Activity in the data set on CV-1 is over 30%.
In the case of `COc1cc(-c2nnc(N[C@@H](C)c3ccc(F)cc3)c(C)c2C)ccc1-n1cnc(C)c1`, the pIC50 at Gamma-secretase [4] worked out at 6.5; at Gamma-secretase [5] it was 5.9. The half-inhibitory concentration (IC50) in data set [6] is over 20 µM.
With `COc1cc(-c2cc(C)c(N[C@@H](C)c3ccc(F)cc3)nn2)ccc1-n1cnc(C)c1` [listing 2 of 2 here], the values for the negative-log IC50 (pIC50) on Gamma-secretase [4] and on Gamma-secretase [5] were 7.2 and 6.7, respectively. Further, the half-maximal inhibitory concentration (IC50) in data set [6] is 10 µM. The results for the Activity entry with SH-SY5Y and in the data set on Rattus norvegicus were “Toxic” and over 20%, respectively. Moreover, the concentration at 6 h amounted to 16 µM in [7] and 9.09 µM in data set [8]. In addition, in data set [9], the Kp at 6 h stood at 0.56.
`COc1cc(-c2ccc(N[C@@H](C)c3ccccc3)nn2)ccc1-n1cnc(C)c1`: the pIC50 at Gamma-secretase [4] came out at 7.1; at Gamma-secretase [5], 6.8. Besides, in data set [6], the half-inhibitory concentration (IC50) was over 20 µM.
For `COc1ccc([C@H](C)Nc2ccc(-c3ccc(-n4cnc(C)c4)c(OC)c3)nn2)cc1` the same measures were 6.8, 6.8 and over 20 µM.
Take `COc1cc(-c2cc(C(C)C)c(N[C@@H](C)c3ccc(F)cc3)nn2)ccc1-n1cnc(C)c1`: the figures for the negative-log IC50 (pIC50) at Gamma-secretase [4] and on Gamma-secretase [5] were 7.3 and 7, respectively. Also, in the data set on CV-1, the Activity was over 30%.
As to `COC[C@H](Nc1ccc(-c2ccc(-n3cnc(C)c3)c(OC)c2)nn1)c1ccccc1`, the values for the pIC50 at Gamma-secretase [4] and at Gamma-secretase [5] were 6.8 and 6.5, respectively. The IC50 in data set [6] was over 20 µM.
Turning to `COc1cc(-c2ccc(N[C@H](c3ccc(F)cc3)C(C)(C)O)nn2)ccc1-n1cnc(C)c1`, the figures for the negative logarithm of the IC50 (pIC50) on Gamma-secretase [4] and on Gamma-secretase [5] were 7.4 and 6.8, respectively. Moreover, the IC50 in [6] was 20 µM.
Turning to `COc1cc(-c2ccc(N[C@@H](C)c3cccc(F)c3)nn2)ccc1-n1cnc(C)c1`, the figures for the pIC50 on Gamma-secretase [4] and at Gamma-secretase [5] were 7.2 and 6.9, respectively. Besides, the IC50 in data set [6] is over 20 µM.
Regarding `COc1cc(-c2nnc(N[C@@H](C)c3ccc(F)cc3)cc2C)ccc1-n1cnc(C)c1`, the results for the negative-log IC50 (pIC50) at Gamma-secretase [4] and at Gamma-secretase [5] were 6.7 and 6.3, respectively. In data set [6], the half-maximal inhibitory concentration (IC50) was 15.8 µM.
In the case of `COc1cc(-c2ccc(N[C@@H](C)c3ccccc3F)nn2)ccc1-n1cnc(C)c1`, the negative-log IC50 (pIC50) on Gamma-secretase [4] is reported as 7.3; at Gamma-secretase [5], 7.1. For the same molecule, the IC50 in data set [6] was 10 µM.
The corresponding values for `COc1cc(-c2ccc(NC(=O)c3ccc(F)cc3)nn2)ccc1-n1cnc(C)c1` are 5.6, 4.7 and 1 µM.
The term half-life denotes the time in which the quantity being followed falls by half. For orientation: bioavailability means dose-corrected exposure relative to a reference, in per cent. In data set [10], `COc1cc(-c2cc(C)c(N[C@@H](C)c3ccc(F)cc3)nn2)ccc1-n1cnc(C)c1.Cl` yielded a clearance of 5.1 mL/min/kg. Also, the Vd in data set [11] was 1.4 L/kg. The half-life in data set [12] was 3.1 h. Further, the bioavailability in data set [13] was determined as 98%.
In the case of `COc1cc(-c2ccc(N[C@@H](C)c3ccc(F)cc3)nn2)ccc1-n1cnc(C)c1`, the results for the negative logarithm of the IC50 (pIC50) at Gamma-secretase [4] and at Gamma-secretase [5] were 7.2 and 6.7, respectively. For the same molecule, the concentration for half-maximal inhibition (IC50) in data set [6] is over 20 µM.
The corresponding values for `COc1cc(-c2cc(C#N)c(N[C@@H](C)c3ccc(F)cc3)nn2)ccc1-n1cnc(C)c1` are 6.9, 5.8 and 15.8 µM.
Regarding `COc1cc(-c2cc(C(F)(F)F)c(N[C@@H](C)c3ccc(F)cc3)nn2)ccc1-n1cnc(C)c1`, the negative logarithm of the IC50 (pIC50) amounted to 7 on Gamma-secretase [4] and 5.6 at Gamma-secretase [5]. Moreover, the Activity in the data set with CV-1 was over 30%.
Consider `COc1cc(-c2ccc(NC(C)(C)c3ccc(F)cc3)nn2)ccc1-n1cnc(C)c1`, for which the negative logarithm of the IC50 (pIC50) turned out to be 7 at Gamma-secretase [4] and 6.1 at Gamma-secretase [5]. For the same molecule, the Activity in the data set with CV-1 was over 30%.
Take `COc1cc(-c2ccc(N[C@H](C)c3ccc(F)cc3)nn2)ccc1-n1cnc(C)c1`: the pIC50 on Gamma-secretase [4] is given as 6.2; on Gamma-secretase [5] it was 6. In addition, the IC50 in [6] is over 20 µM.
For `CC[C@H](Nc1ccc(-c2ccc(-n3cnc(C)c3)c(OC)c2)nn1)c1ccc(F)cc1` the same measures were 7.3, 6.9 and 10 µM.

For the origin of these results see ChEMBL document CHEMBL1795222, “Pyridazine-derived γ-secretase modulators” (Bioorg Med Chem Lett, 2011).
